“And” between values parts separate entries of the source, which are not always exact repeats. Identical values can stand only once.
Assays:
PCI-37B cells = assay: Apoptotic cell death (annexin V/PI staining); format: cell-based, human; conditions: cisplatin 1 μg/ml, 48 h, n=1-3: biological replicates
GSH/GSSG = GSH/GSSG ratio (GSH/GSSG-Glo); format: cell-based, human
Experimental: (§1) Cellular metabolic states were examined through various assays. To gauge the levels of total intracellular or mitochondrial reactive oxygen species (ROS), cells were stained with CM-H2DCFDA or mitoSOX, respectively. Intracellular H2O2, NADPH, acetyl-CoA, and GSH/GSSG ratios were quantified using commercial assay kits as listed in the Reagents. Intracellular ATP levels were determined utilizing the ATP bioluminescent somatic cell assay and normalized to the total protein concentrations. The de novo synthesized RNA and proteins were assessed in cancer cells using commercial assays following the manufacturer’s protocols. In brief, O-propargyl-puromycin or uridine analog, 5-EU, was applied to stop translation or modify RNA. Polypeptides or modified RNA were measured using fluorescent azide with Ex/Em at 494/521 nm. PDC activity was determined by measuring the reduction of NAD+ to NADH during the conversion of pyruvate into acetyl-CoA.
Supplementary Fig. 2: GSH/GSSG ratio and NADPH level change upon DLAT knockdown and cisplatin treatment. A549cisR (a) and KB-3-1cisR (b) cells were transduced with control or […]
µg/ml; KB-3-1cisR: 5 µg/ml) for 24 h. The GSH/GSSG ratio and relative NADPH levels were measured using GSH/GSSG-Glo Assay and NADP/NADPH-Glo Assay, respectively. Error bars represent SD and are from 4 independent biological replicates for the upper panels of (a,b) and 3 for the lower panels of (a,b). P values were determined by one-way ANOVA.
(1 picture or pasted object on this page, not shown here)

protein synthesis = assay: Global protein synthesis (O-propargyl-puromycin); format: cell-based, human
Experimental: as §1

H1299 cells = assay: Apoptotic cell death (annexin V/PI staining); format: cell-based, human; conditions: cisplatin 5 μg/ml, 48 h, n=1-3: biological replicates
[1] = tested on: KB-3-1cisR xenograft tumors; assay: IHC of KB-3-1cisR xenograft tumors (Ac-K44 MTHFD2, MT-CO2, DLAT, Ki-67); format: in vivo, athymic nu/nu mice; design: key: IHC intensity score 0 to 3+; conditions: KB-3-1cisR xenograft tumors (Figure 8J)
Excerpt: Formalin-fixed and paraffin-embedded tumor tissue specimens from HNSCC and NSCLC patients were obtained from the […] Cancer Tissue and Pathology Shared Resources. The Institutional Review Board (IRB) of Emory University approved using human specimens (IRB00003208 - HNSCC, IRB00098377 - NSCLC). Clinical samples were collected with informed consent according to the Health Insurance Portability and Accountability Act. Patients' clinical information was obtained through the […] Technology Applications Shared Resource. Tumors from HNSCC or NSCLC patients who received chemotherapy-containing regimens were used. Immunohistochemistry (IHC) staining of DLAT, acetyl-[…] MTHFD2, MT-CO2, and Ki-67 was performed based on the established protocol. Antigen retrieval was conducted in Tris-EDTA (pH 9.0) for acetyl-[…] MTHFD2 and MT-CO2 and sodium citrate (pH 6.0) for the remaining antigens. […] Assessment of positive DLAT, MT-CO2, and acetyl-[…] MTHFD2 staining intensity within tumor cells was performed using a scoring system ranging from 0 to 3+ based on IHC signal intensity. Mice were subcutaneously injected into the flank with 1 × 10^6 KB-3-1^cisR cells with or without DLAT knockdown. […] Tumors were collected at the experimental endpoint, and tumor proliferation was assessed using Ki-67 IHC staining. The localization, penetration, and efficacy of DMp39 were monitored by assessing the acetyl-[…] levels in tumors and fluorescence imaging analysis using an IVIS imaging system. Drug-induced organ toxicities, including splenomegaly, liver damage, and kidney injury, were monitored by assessing spleen index, alanine transaminase activity, and cystatin C levels in plasma.

[2] = tested on: KB-3-1cisR xenograft tumors; assay: KB-3-1cisR xenograft tumor growth (volume, weight); format: in vivo, athymic nu/nu mice; design: unit not given here; conditions: cisplatin 5 mg/kg i.p. twice a week, endpoint, n=1-8: individual mice, listed as cis
Experimental: All animal procedures were conducted based on the protocol (DAR-PROTO-201700885) approved by the Emory University Institutional Animal Care and Use Committee. Female athymic nu/nu mice (Hsd:Athymic Nude-Foxn1nu, 6-week-old; Envigo) were housed under specific pathogen-free (SPF) conditions in the Emory University animal facility. […] Mice were subcutaneously injected into the flank with 1 × 10^6 KB-3-1^cisR cells with or without DLAT knockdown. […] Tumors were collected at the experimental endpoint, and tumor proliferation was assessed using Ki-67 IHC staining. The localization, penetration, and efficacy of DMp39 were monitored by assessing the acetyl-[…] levels in tumors and fluorescence imaging analysis using an IVIS imaging system. Drug-induced organ toxicities, including splenomegaly, liver damage, and kidney injury, were monitored by assessing spleen index, alanine transaminase activity, and cystatin C levels in plasma.

SMILES: N.N.[Cl][Pt][Cl] [cisplatin]
- Apoptotic death (PCI-37B cells; PCI-37B pLKO.1): 19.17
- Apoptotic death (PCI-37B cells; PCI-37B shDLAT #1): 38.02
- Apoptotic death (PCI-37B cells; PCI-37B shDLAT #2): 33.33 and 33.41 and 32.54
- GSH/GSSG (GSH/GSSG; A549cisR cells, pLKO.1, n=2): 20.0066
- GSH/GSSG (GSH/GSSG; A549cisR cells, shDLAT, n=3): 8.945
- GSH/GSSG (GSH/GSSG; KB-3-1cisR cells, shDLAT, n=1): 6.046
- GSH/GSSG (GSH/GSSG; KB-3-1cisR cells, shDLAT, n=2): 6.2227
- Global protein synthase (protein synthesis; A549cisR, pLKO.1, n=1 (Figure 3B)): 73.5
- Global protein synthase (protein synthesis; A549cisR, pLKO.1, n=2 (Figure 3B)): 70.6
- Global protein synthase (protein synthesis; A549cisR, pLKO.1, n=3 (Figure 3B)): 67.1
- Global protein synthase (protein synthesis; A549cisR, shDLAT, n=1 (Figure 3B)): 76.2
- Global protein synthase (protein synthesis; A549cisR, shDLAT, n=2 (Figure 3B)): 75.5
- Global protein synthase (protein synthesis; A549cisR, shDLAT, n=3 (Figure 3B)): 73.3
- Global protein synthase (protein synthesis; KB-3-1cisR, pLKO.1, n=1 (Figure 3B)): 101
- Global protein synthase (protein synthesis; KB-3-1cisR, pLKO.1, n=2 (Figure 3B)): 98.7
- Global protein synthase (protein synthesis; KB-3-1cisR, pLKO.1, n=3 (Figure 3B)): 101
- Global protein synthase (protein synthesis; KB-3-1cisR, shDLAT, n=1 (Figure 3B)): 92.8
- Global protein synthase (protein synthesis; KB-3-1cisR, shDLAT, n=2 (Figure 3B)): 100
- Global protein synthase (protein synthesis; KB-3-1cisR, shDLAT, n=3 (Figure 3B)): 92.4
- Apoptotic death (H1299 cells; H1299 pLKO.1): 12.41
- Apoptotic death (H1299 cells; H1299 shDLAT #1): 23.45 and 22.74
- Apoptotic death (H1299 cells; H1299 shDLAT #2): 18.43
- Ac-K44 (IHC score) ([1]; n=1): 2
- DLAT (IHC score) ([1]; n=1): 2
- MT-CO2 (IHC score) ([1]; n=1): 3
- Ac-K44 (IHC score) ([1]; n=2): 3
- DLAT (IHC score) ([1]; n=2): 3
- MT-CO2 (IHC score) ([1]; n=2): 3
- Ac-K44 (IHC score) ([1]; n=3): 2
- DLAT (IHC score) ([1]; n=3): 2
- MT-CO2 (IHC score) ([1]; n=3): 3
- Ac-K44 (IHC score) ([1]; n=4): 2
- DLAT (IHC score) ([1]; n=4): 3
- MT-CO2 (IHC score) ([1]; n=4): 3
- Ac-K44 (IHC score) ([1]; n=5): 2
- DLAT (IHC score) ([1]; n=5): 3
- MT-CO2 (IHC score) ([1]; n=5): 1
- Ac-K44 (IHC score) ([1]; n=6): 2
- DLAT (IHC score) ([1]; n=6): 2
- MT-CO2 (IHC score) ([1]; n=6): 3
- Tumor weight ([2]; KB-3-1cisR pLKO.1 xenograft): 0.88 and 0.77 and 0.52 and 1.65 and 1.63 and 1.39 and 1.43 and 1.01
- Tumor weight ([2]; KB-3-1cisR shDLAT #1 xenograft): 0.29 and 0.41 and 0.58 and 0.1 and 0.06 and 0.15 and 0.16 and 0.23
- Tumor weight ([2]; KB-3-1cisR shDLAT #2 xenograft): 0.63 and 0.5 and 0.66 and 0.02 and 0.08 and 0.19 and 0.34 and 0.36
